Experimental data published in patent US9732075B2, “Benzimidazole-proline derivatives” (IDORSIA PHARMACEUTICALS LTD, priority 2012, dated 2017).

Experiments:
human orexin-1 receptor = human orexin-1 receptor (Homo sapiens (Human), UniProt O43613); test: In vitro assay: intracellular calcium measurements (FLIPR), antagonistic activity; assay type: cell-based; conditions: CHO cells expressing human orexin-1 receptor, orexin-A agonist, geometric mean, read-out: IC50 Ox1
Experimental: (§1) In Vitro Assay: Intracellular Calcium Measurements:
(§2) Chinese hamster ovary (CHO) cells expressing the human orexin-1 receptor and the human orexin-2 receptor, respectively, are grown in culture medium (Ham F-12 with L-Glutamine) containing 300 μg/ml G418, 100 U/ml penicillin, 100 μg/ml streptomycin and 10% heat inactivated fetal calf serum (FCS). The cells are seeded at 20,000 cells/well into 384-well black clear bottom sterile plates (Greiner). The seeded plates are incubated overnight at 37° C. in 5% CO2.
(§3) Human orexin-A as an agonist is prepared as 1 mM stock solution in MeOH: water (1:1), diluted in HBSS containing 0.1% bovine serum albumin (BSA), NaHCO3: 0.375 g/l and 20 mM HEPES for use in the assay at a final concentration of 3 nM.
(§4) Antagonists are prepared as 10 mM stock solution in DMSO, then diluted in 384-well plates using DMSO followed by a transfer of the dilutions into in HBSS containing 0.1% bovine serum albumin (BSA), NaHCO3: 0.375 g/l and 20 mM HEPES. On the day of the assay, 50 μl of staining buffer (HBSS containing 1% FCS, 20 mM HEPES, NaHCO3: 0.375 g/l, 5 mM probenecid (Sigma) and […] of the fluorescent calcium indicator fluo-4 AM (1 mM stock solution in DMSO, containing 10% pluronic) is added to each well. The 384-well cell-plates are incubated for 50 min at 37° C. in 5% CO2 followed by equilibration at RT for 30 min before measurement.
(§5) Within the Fluorescent Imaging Plate Reader (FLIPR Tetra, Molecular Devices), antagonists are added to the plate in a volume of 10 μl/well, incubated for 120 min and finally 10 μl/well of agonist is added. Fluorescence is measured for each well at 1 second intervals, and the height of each fluorescence peak is compared to the height of the fluorescence peak induced by an approximate EC70 (for example 5 nM) of orexin-A with vehicle in place of antagonist. The IC50 value (the concentration of compound needed to inhibit 50% of the agonistic response) is determined and may be normalized using the obtained IC50 value of a on-plate reference compound. Optimized conditions are achieved by adjustment of pipetting speed and cell splitting regime. The calculated IC50 values may fluctuate depending on the daily cellular assay performance. Fluctuations of this kind are known to those skilled in the art. Average IC50 values from several measurements are given as geometric mean values.

human orexin-2 receptor = human orexin-2 receptor (Homo sapiens (Human), UniProt O43614); test: as above; assay type: cell-based; conditions: CHO cells expressing human orexin-2 receptor, orexin-A agonist, geometric mean, read-out: IC50 Ox2
Experimental: as §1, §2, §3, §4, §5

Chain of human orexin-1 receptor (O43613 whole entry): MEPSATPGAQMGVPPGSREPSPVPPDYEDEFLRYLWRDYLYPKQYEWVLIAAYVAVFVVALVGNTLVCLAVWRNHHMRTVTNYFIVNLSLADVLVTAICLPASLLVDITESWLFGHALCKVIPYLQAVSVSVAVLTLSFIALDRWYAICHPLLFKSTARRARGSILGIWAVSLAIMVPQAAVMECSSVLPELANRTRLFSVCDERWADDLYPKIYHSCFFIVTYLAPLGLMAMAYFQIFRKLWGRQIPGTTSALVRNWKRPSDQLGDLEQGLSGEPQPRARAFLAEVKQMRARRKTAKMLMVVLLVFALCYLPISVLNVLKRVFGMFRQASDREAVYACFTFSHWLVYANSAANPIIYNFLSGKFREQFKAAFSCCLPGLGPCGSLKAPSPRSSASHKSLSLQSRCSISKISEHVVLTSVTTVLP
Chain of human orexin-2 receptor (O43614 whole entry): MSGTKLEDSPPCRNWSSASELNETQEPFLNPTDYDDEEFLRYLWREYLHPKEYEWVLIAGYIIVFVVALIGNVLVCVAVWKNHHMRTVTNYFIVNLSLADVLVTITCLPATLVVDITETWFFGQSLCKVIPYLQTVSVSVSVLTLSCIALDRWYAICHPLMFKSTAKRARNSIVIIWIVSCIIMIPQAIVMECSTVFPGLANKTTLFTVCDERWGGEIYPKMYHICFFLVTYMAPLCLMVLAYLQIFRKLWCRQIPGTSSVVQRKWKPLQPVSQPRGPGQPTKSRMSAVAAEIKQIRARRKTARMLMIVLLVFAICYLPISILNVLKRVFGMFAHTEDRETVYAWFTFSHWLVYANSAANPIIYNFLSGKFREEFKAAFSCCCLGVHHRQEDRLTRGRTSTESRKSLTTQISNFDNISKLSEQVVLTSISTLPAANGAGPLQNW

SMILES | IC50 (human orexin-1 receptor) [nM] | IC50 (human orexin-2 receptor) [nM]
Cc1c(Cl)ccc2[nH]c([C@]3(C)CCCN3C(=O)c3c(F)cccc3-c3ccccn3)nc12 [Ex. 5.221] | 19 | 83
C=C1C[C@@H](c2nc3cccc(C)c3[nH]2)N(C(=O)c2nc(C)sc2-c2ccc(Cl)c(Cl)c2)C1 [Ex. 6.113] | 5 | 1
COc1cccc2[nH]c([C@@H]3[C@@H](C)CCN3C(=O)c3cc(C)ccc3-n3nccn3)nc12 [Ex. 4.31] | 77 | 774
Cc1ccc(-n2cccn2)c(C(=O)N2CCC[C@@]2(C)c2nc3cc(C(F)(F)F)c(Cl)cc3[nH]2)c1 [Ex. 5.138] | 2 | 10
C=C1CC(c2nc3c(OC)ccc(OC)c3[nH]2)N(C(=O)c2nc(C3CC3)sc2-c2cccc(C)c2)C1 (stereo not drawn) [Ex. 6.98] | 4 | 3
Cc1ccc(C(=O)N2CCC[C@@]2(C)c2nc3cc(C(F)(F)F)c(Cl)cc3[nH]2)c(-n2nccn2)c1 [Ex. 5.140] | 5 | 28
CCn1c([C@]2(C)CCCN2C(=O)c2cc(C)ccc2-c2cccc(C)c2)nc2cc(C)c(C)cc21 [Ex. 7.27] | 23 | 17
Cc1ccc(-c2cccc(F)c2)c(C(=O)N2CCC[C@@]2(C)c2nc3cc(C)c(C)cc3[nH]2)c1 [Ex. 5.97] | 6 | 11
CCc1ccc(-c2sc(C)nc2C(=O)N2CCC[C@H]2c2nc3ccc(SC)cc3[nH]2)cc1 [Ex. 1.42] | 263 | 65
CSc1ccc2nc([C@@H]3CCCN3C(=O)c3nc(C4CC4)sc3-c3ccccc3)[nH]c2c1 [Ex. 1.35] | 117 | 99
Cc1ccc(-n2cccn2)c(C(=O)N2CCC[C@@]2(C)c2nc3c(C)c(Cl)ccc3[nH]2)n1 [Ex. 5.44] | 8 | 29
COc1cc2nc([C@]3(C)CCCN3C(=O)c3cc(C(F)(F)F)ccc3-n3nccn3)[nH]c2cc1OC [Ex. 5.71] | 56 | 22
Cc1ccc(-c2ccc(F)cc2)c(C(=O)N2CCC[C@@]2(C)c2nc3cc(C)c(C)cc3[nH]2)c1 [Ex. 5.96] | 13 | 32
C=C1C[C@@H](c2nc3cc(OC)ccc3[nH]2)N(C(=O)c2nc(C)sc2-c2cccc(C)c2)C1 [Ex. 6.7] | 15 | 3
Cc1nc(C(=O)N2CCCC2c2nc3cc(C(F)(F)F)ccc3[nH]2)c(-c2ccccc2)s1 (stereo not drawn) [Ex. 1.121] | 76 | 287
C[C@@]1(c2nc3cc(C(F)(F)F)ccc3[nH]2)CCCN1C(=O)c1cc(F)ccc1-n1nccn1 [Ex. 5.165] | 65 | 355
C=C1C[C@@H](c2nc3cc(Cl)c(C(F)(F)F)cc3[nH]2)N(C(=O)c2ccccc2-n2cccn2)C1 [Ex. 6.188] | 115 | 66
Cc1ccc(-c2sccc2C(=O)N2CC[C@H](C)[C@H]2c2nc3c(Cl)cccc3[nH]2)cc1C [Ex. 4.127] | 1 | 19
Cc1nc(C(=O)N2CCCC2c2nc3cc(Cl)c(C)cc3[nH]2)c(-c2ccccc2)s1 (stereo not drawn) [Ex. 1.126] | 18 | 24
C=C1C[C@@H](c2nc3cc(OC)ccc3[nH]2)N(C(=O)c2nc(C3CC3)sc2-c2ccc(C)c(F)c2)C1 [Ex. 6.25] | 154 | 52
Cc1ccc(-c2ncccn2)c(C(=O)N2CC[C@H](C)[C@H]2c2nc3cc(C)c(C)cc3[nH]2)c1 [Ex. 4.183] | 93 | 2260
C=C1C[C@@H](c2nc3cc(Cl)c(C(F)(F)F)cc3[nH]2)N(C(=O)c2c(F)cccc2-n2nccn2)C1 [Ex. 6.175] | 77 | 19
COc1ccc2nc([C@@H]3CCCN3C(=O)c3ccccc3-n3nccn3)[nH]c2c1 [Ex. 1.27] | 1040 | 35
Cc1nc(C(=O)N2CCC[C@@]2(C)c2nc3c(C)cccc3n2C)c(-c2cccc(Cl)c2)s1 [Ex. 7.5] | 9 | 2
C=C1C[C@@H](c2nc3cc(C)c(C)cc3[nH]2)N(C(=O)c2c(C)cccc2-n2nccn2)C1 [Ex. 6.199] | 143 | 6
COc1ccc2nc([C@@H]3CCCN3C(=O)c3nc(C)sc3-c3cccc(Cl)c3Cl)[nH]c2c1 [Ex. 1.19] | 660 | 76

SMILES | IC50 (human orexin-1 receptor) [nM] | IC50 (human orexin-2 receptor) [nM]
C=C1C[C@@H](c2nc3cccc(C)c3[nH]2)N(C(=O)c2nc(C)sc2-c2cccc(C)c2)C1 [Ex. 6.101] | 10 | 0.9
Cc1ccc(-c2ccccc2C(=O)N2CC[C@H](C)[C@H]2c2nc3cc(Cl)c(C)cc3[nH]2)cc1 [Ex. 4.77] | 5 | 790
C=C1C[C@@H](c2nc3cc(Cl)c(C(F)(F)F)cc3[nH]2)N(C(=O)c2ccccc2-n2nccn2)C1 [Ex. 6.178] | 44 | 10
COc1cccc(-c2nc(C)ncc2C(=O)N2CCC[C@H]2c2nc3ccc(SC)cc3[nH]2)c1 [Ex. 1.56] | 252 | 88
C=C1C[C@@H](c2nc3cccc(C)c3[nH]2)N(C(=O)c2cc(C)c(C)cc2-n2nccn2)C1 [Ex. 6.108] | 414 | 7
Cc1cccc(-c2ccc(C)cc2C(=O)N2CCC[C@@]2(C)c2nc3cc(C(F)(F)F)ccc3[nH]2)c1 [Ex. 5.189] | 16 | 62
Cc1nc(C(=O)N2CC[C@H](C)[C@H]2c2nc3cc(C(F)(F)F)ccc3[nH]2)c(-c2ccc(Cl)cc2)s1 [Ex. 4.139] | 5 | 2260
Cc1nc(C(=O)N2C[C@H](F)C[C@H]2c2nc3c(C)c(Cl)ccc3[nH]2)c(-c2cccc(Cl)c2)s1 [Ex. 2.10] | 5 | 8
Cc1nc(C(=O)N2CCC[C@H]2c2nc3cc(Cl)c(C(F)(F)F)cc3[nH]2)c(-c2ccccc2)s1 [Ex. 1.146] | 7 | 23
COc1cc2nc([C@@H]3[C@@H](C)CCN3C(=O)c3sc(C)nc3-c3ccc(C)cc3)[nH]c2cc1OC [Ex. 4.51] | 99 | 677
C=C1C[C@@H](c2nc3c(OC)ccc(OC)c3[nH]2)N(C(=O)c2cc(C)ccc2-n2nccn2)C1 [Ex. 6.68] | 767 | 62
Cc1c(Cl)ccc2nc([C@]3(C)CCCN3C(=O)c3c(F)cccc3-c3ccccc3)[nH]c12 [Ex. 5.225] | 16 | 44
Cc1ccc(C(=O)N2CC[C@H](C)[C@H]2c2nc3c(C)c(Cl)ccc3[nH]2)c(-c2ccccn2)c1 [Ex. 4.167] | 13 | 144
Cc1c(Cl)ccc2[nH]c([C@]3(C)CCCN3C(=O)c3c(F)cccc3-c3ncccn3)nc12 [Ex. 5.222] | 26 | 68
C=C1C[C@@H](c2nc3cc(C)c(C)cc3[nH]2)N(C(=O)c2c(-n3nccn3)ccc(OC)c2F)C1 [Ex. 6.195] | 43 | 11
CSc1cccc2nc([C@@H]3CCCN3C(=O)c3nccnc3-c3cccc(C(F)(F)F)c3)[nH]c12 [Ex. 1.73] | 136 | 282
CO[C@H]1CN(C(=O)c2cc(C)ccc2-n2nccn2)[C@](C)(c2nc3c(C)c(Cl)ccc3[nH]2)C1 [Ex. 3.30] | 2 | 2
Cc1ccc(-n2nccn2)c(C(=O)N2CCC[C@@]2(C)c2nc3cc(OC(F)(F)F)ccc3[nH]2)c1 [Ex. 5.20] | 19 | 161
Cc1nc(C(=O)N2CCCC2c2nc3cc(F)c(Br)cc3[nH]2)c(-c2cccc(Cl)c2)s1 (stereo not drawn) [Ex. 1.112] | 69 | 289
COc1cc2nc([C@]3(C)CCCN3C(=O)c3c(-n4nccn4)ccc(OC)c3F)[nH]c2cc1OC [Ex. 5.69] | 414 | 1200
CSc1cccc2nc([C@@H]3CCCN3C(=O)c3cc(F)ccc3-n3nccn3)[nH]c12 [Ex. 1.163] | 167 | 17
COc1cc2nc([C@]3(C)CCCN3C(=O)c3cc(C)c(C)cc3-n3nccn3)n(C)c2cc1OC [Ex. 7.13] | 21 | 49
C=C1CC(c2nc3c(C)cccc3[nH]2)N(C(=O)c2nc(C3CC3)sc2-c2cccc(C)c2)C1 (stereo not drawn) [Ex. 6.94] | 2 | 1
Cc1ccc(-n2nccn2)c(C(=O)N2CCC[C@@]2(C)c2nc3cc(C(F)(F)F)ccc3[nH]2)n1 [Ex. 5.178] | 20 | 280
COc1ccc2nc([C@@H]3CCCN3C(=O)c3cc(F)ccc3-n3nccn3)[nH]c2c1 [Ex. 1.156] | 1810 | 29
